US8470820B2, “Nitrogen-containing heteroaryl derivatives” (Hoffman-La Roche Inc., priority 2010, dated 2013)

Legend:
rats = settings: sub-chronic treatment with PCP (NMDA receptor hypofunction paradigm); cited from earlier work
human PDE10A = human PDE10A (Homo sapiens (Human), UniProt Q9Y233); test: human PDE10A full length Scintillation Proximity Assay (SPA); format: biochemical; settings: 50 nM cGMP and 50 nM [3H]-cGMP, 20 minutes at room temperature, read-out: PDE10A inhibition IC50
Protocol: The following test was carried out in order to determine the activity of the compounds of the present invention. PDE10 activity of the compounds of the present invention was determined using a Scintillation Proximity Assay (SPA)-based method similar to the one previously described (Fawcett, L. et al., Proc Natl Acad Sci USA (2000) 97(7):3702-3707).
The human PDE10A full length assay was performed in 96-well micro titer plates. The reaction mixture of 50 μl contained 20 mM HEPES pH=7.5/10 mM MgCl2/0.05 mg/ml BSA (Sigma cat. # A-7906), 50 nM cGMP (Sigma, cat. # G6129) and 50 nM [^3H]-cGMP (GE Healthcare, cat. # TRK392 S.A. 13.2Ci/mmol), 3.75 ng/well PDE10A enzyme (Enzo Life Science, Lausen, Switzerland cat # SE-534) with or without a specific test compound. A range of concentrations of the potential inhibitor was used to generate data for calculating the concentration of inhibitor resulting in 50% of the effect (e.g. IC50, the concentration of the competitor inhibiting PDE10A activity by 50%). Non-specific activity was tested without the enzyme. The reaction was initiated by the addition of the substrate solution (cGMP and [^3H]-cGMP) and allowed to progress for 20 minutes at room temperature. The reaction was terminated by adding 25 μA of YSi-SPA scintillation beads (GE Healthcare, cat. # RPNQ0150) in 18 mM zinc sulphate solution (stop reagent). After 1 h under shaking, the plate was centrifuged one minute at 170 g to allow beads to settle. Afterwards, radioactive counts were measured on a Perkin Elmer TopCount Scintillation plate reader.

human PDE10A, sequence (Q9Y233 other isoform, or with tags, fused parts or gaps): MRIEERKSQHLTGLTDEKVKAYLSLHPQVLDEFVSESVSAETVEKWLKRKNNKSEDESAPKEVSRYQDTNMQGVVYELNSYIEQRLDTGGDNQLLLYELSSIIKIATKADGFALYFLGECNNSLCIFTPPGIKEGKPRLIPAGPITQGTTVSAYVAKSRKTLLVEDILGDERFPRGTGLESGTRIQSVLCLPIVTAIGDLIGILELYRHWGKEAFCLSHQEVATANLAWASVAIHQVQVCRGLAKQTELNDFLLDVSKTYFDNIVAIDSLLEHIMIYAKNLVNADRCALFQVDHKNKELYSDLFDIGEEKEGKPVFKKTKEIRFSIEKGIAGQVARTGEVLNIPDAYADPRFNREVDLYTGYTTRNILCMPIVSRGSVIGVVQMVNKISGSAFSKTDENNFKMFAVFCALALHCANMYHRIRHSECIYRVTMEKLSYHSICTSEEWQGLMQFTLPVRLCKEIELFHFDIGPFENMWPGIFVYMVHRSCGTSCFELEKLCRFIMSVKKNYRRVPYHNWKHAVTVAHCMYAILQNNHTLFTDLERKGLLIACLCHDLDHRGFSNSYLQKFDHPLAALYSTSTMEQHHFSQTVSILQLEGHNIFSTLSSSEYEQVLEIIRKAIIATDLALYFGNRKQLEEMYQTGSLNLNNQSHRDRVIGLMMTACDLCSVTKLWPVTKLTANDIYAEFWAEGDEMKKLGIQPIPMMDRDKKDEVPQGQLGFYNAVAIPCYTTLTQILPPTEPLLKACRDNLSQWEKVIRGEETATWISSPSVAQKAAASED

COc1ccc(Cc2nccc3cc(OC)c(OC)cc23)cc1OC [papaverine, Papaverine]
effect on deficits in extra-dimensional shift learning (rats): attenuate the deficits in the extra-dimensional shift learning

O=C(Nc1cc(-c2ccccn2)nn1CC1CCCCC1)c1nc(C2CC2)ccc1Nc1cncnc1 [Example 32, 6-Cyclopropyl-3-(pyrimidin-5-ylamino)-pyridine-2-carboxylic acid (2-cyclohexylmethyl-5-pyridin-2-yl-2H-pyrazol-3-yl)-amide]
IC50 (human PDE10A): 1 nM

O=C(Nc1cc(-c2ccccn2)no1)c1nc(C2CC2)ccc1Nc1cncnc1 [Example 51, 6-Cyclopropyl-3-(pyrimidin-5-ylamino)-pyridine-2-carboxylic acid (3-pyridin-2-yl-isoxazol-5-yl)-amide]
IC50 (human PDE10A): 4 nM

O=C(Nc1cn(-c2ccccn2)cn1)c1nc(C2CC2)ccc1Nc1cncnc1 [Example 52, 6-Cyclopropyl-3-(pyrimidin-5-ylamino)-pyridine-2-carboxylic acid (1-pyridin-2-yl-1H-imidazol-4-yl)-amide]
IC50 (human PDE10A): 33 nM

O=C(Nc1cc(-c2ccccn2)nn1CC1CCCC1)c1nc(C2CC2)ccc1Nc1cncnc1 [Example 31, 6-Cyclopropyl-3-(pyrimidin-5-ylamino)-pyridine-2-carboxylic acid (2-cyclopentylmethyl-5-pyridin-2-yl-2H-pyrazol-3-yl)-amide]
IC50 (human PDE10A): 1 nM
